Reference: ChEMBL document CHEMBL2010722, “Structure-activity relationship study of beta-carboline derivatives as haspin kinase inhibitors” (Bioorg Med Chem Lett, 2012)

Tests used:
[1] = target: Fibroblast growth factor receptor 3 (Homo sapiens) (UniProt P22607); experiment: Inhibition of FGFR3 at 10 uM
[2] = target: Serine/threonine-protein kinase MARK2 (Homo sapiens) (UniProt Q7KZI7); experiment: Inhibition of MARK2 at 10 uM
[3] = target: Ephrin type-A receptor 5 (Homo sapiens) (UniProt P54756); experiment: Inhibition of EPHA5 at 10 uM
[4] = target: Mitogen-activated protein kinase kinase kinase 8 (Homo sapiens) (UniProt P41279); experiment: Inhibition of COT at 10 uM
[5] = target: Eukaryotic elongation factor 2 kinase (Homo sapiens) (UniProt O00418); experiment: Inhibition of EEF2K at 10 uM
[6] = target: Mitogen-activated protein kinase 9 (Homo sapiens) (UniProt P45984); experiment: Inhibition of JNK2 at 10 uM
[7] = target: Serine/threonine-protein kinase 3 (Homo sapiens) (UniProt Q13188); experiment: Inhibition of MST2 at 10 uM
[8] = target: Serine/threonine-protein kinase 38 (Homo sapiens) (UniProt Q15208); experiment: Inhibition of NDR1 at 10 uM
[9] = target: Serine/threonine-protein kinase PLK3 (Homo sapiens) (UniProt Q9H4B4); experiment: Inhibition of PLK3 at 10 uM
[10] = target: cGMP-dependent protein kinase 2 (Homo sapiens) (UniProt Q13237); experiment: Inhibition of CGK2 at 10 uM
[11] = target: Cyclin-dependent kinase 2/cyclin A (Homo sapiens) (UniProt P24941+P20248+P78396); experiment: Inhibition of CDK2-Cyclin A2 at 10 uM; assay type: protein-complex assay
[12] = target: Misshapen-like kinase 1 (Homo sapiens) (UniProt Q8N4C8); experiment: Inhibition of MINK at 10 uM
[13] = target: Ribosomal protein S6 kinase alpha-6 (Homo sapiens) (UniProt Q9UK32); experiment: Inhibition of RSK4 N-terminal at 10 uM
[14] = target: Serine/threonine-protein kinase PAK 5 (Homo sapiens) (UniProt Q9P286); experiment: Inhibition of PAK5 (PAK7) at 10 uM
[15] = target: Calcium/calmodulin-dependent protein kinase type II subunit beta (Homo sapiens) (UniProt Q13554); experiment: Inhibition of CaMK2b at 10 uM
[16] = target: Protein-tyrosine kinase 2-beta (Homo sapiens) (UniProt Q14289); experiment: Inhibition of PYK2 at 10 uM
[17] = target: Sphingosine kinase 1 (Homo sapiens) (UniProt Q9NYA1); experiment: Inhibition of SPHK1 at 10 uM
[18] = target: Tyrosine-protein kinase receptor TYRO3 (Homo sapiens) (UniProt Q06418); experiment: Inhibition of TYRO3 at 10 uM
[19] = tested on: Tyrosine-protein kinase ABL1 (Homo sapiens), P00519 [E255K]; experiment: Inhibition of ABL E255K mutant at 10 uM
[20] = target: Calcium/calmodulin-dependent protein kinase type IV (Homo sapiens) (UniProt Q16566); experiment: Inhibition of CaMK4 at 10 uM
[21] = target: MAP kinase-activated protein kinase 3 (Homo sapiens) (UniProt Q16644); experiment: Inhibition of MAPKAPK3 at 10 uM
[22] = target: T1, Dual specificity tyrosine-phosphorylation-regulated kinase 2 (Homo sapiens, UniProt Q92630)
T1 sequence (Q92630 whole entry): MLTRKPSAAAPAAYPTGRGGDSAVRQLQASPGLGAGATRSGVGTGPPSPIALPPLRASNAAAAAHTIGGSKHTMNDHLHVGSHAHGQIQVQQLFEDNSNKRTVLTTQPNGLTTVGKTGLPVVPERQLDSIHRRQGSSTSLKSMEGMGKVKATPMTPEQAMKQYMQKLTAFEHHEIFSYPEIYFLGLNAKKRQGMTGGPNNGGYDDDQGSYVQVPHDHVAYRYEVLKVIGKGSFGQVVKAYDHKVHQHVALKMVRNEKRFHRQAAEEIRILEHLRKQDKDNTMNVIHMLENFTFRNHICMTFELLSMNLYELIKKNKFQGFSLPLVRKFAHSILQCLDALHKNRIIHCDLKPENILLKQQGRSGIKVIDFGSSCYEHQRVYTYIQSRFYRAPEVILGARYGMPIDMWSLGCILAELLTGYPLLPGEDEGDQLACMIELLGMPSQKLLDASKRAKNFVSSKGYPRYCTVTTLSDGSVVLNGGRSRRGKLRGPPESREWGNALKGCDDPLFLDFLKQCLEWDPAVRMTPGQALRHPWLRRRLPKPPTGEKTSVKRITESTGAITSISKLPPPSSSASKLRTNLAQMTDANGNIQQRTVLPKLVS

[23] = target: Serine/threonine-protein kinase NIM1 (Homo sapiens) (UniProt Q8IY84); experiment: Inhibition of NIM1 at 10 uM
[24] = target: Ephrin type-B receptor 1 (Homo sapiens) (UniProt P54762); experiment: Inhibition of EPHB1 at 10 uM
[25] = target: Mitogen-activated protein kinase 13 (Homo sapiens) (UniProt O15264); experiment: Inhibition of p38delta at 10 uM
[26] = target: Receptor-type tyrosine-protein kinase FLT3 (Homo sapiens) (UniProt P36888); experiment: Inhibition of FLT3 at 10 uM
[27] = target: Casein kinase II alpha'/ beta (Homo sapiens) (UniProt P67870+P19784); experiment: Inhibition of CK2a2/b at 10 uM; assay type: protein-complex assay
[28] = target: MAP kinase-activated protein kinase 5 (Homo sapiens) (UniProt Q8IW41); experiment: Inhibition of MAPKAPK5 at 10 uM
[29] = target: Dual specificity mitogen-activated protein kinase kinase 1 (Homo sapiens) (UniProt Q02750); experiment: Inhibition of MAP2K1 at 10 uM
[30] = target: Mitogen-activated protein kinase 11 (Homo sapiens) (UniProt Q15759); experiment: Inhibition of p38beta at 10 uM
[31] = target: Protein kinase C epsilon type (Homo sapiens) (UniProt Q02156); experiment: Inhibition of PKCepsilon at 10 uM
[32] = target: MAP kinase-interacting serine/threonine-protein kinase 1 (Homo sapiens) (UniProt Q9BUB5); experiment: Inhibition of MNK1 at 10 uM
[33] = target: Ephrin type-A receptor 6 (Homo sapiens) (UniProt Q9UF33); experiment: Inhibition of EPHA6 at 10 uM
[34] = target: PAS domain-containing serine/threonine-protein kinase (Homo sapiens) (UniProt Q96RG2); experiment: Inhibition of PASK at 10 uM
[35] = target: Serine/threonine-protein kinase Chk2 (Homo sapiens) (UniProt O96017); experiment: Inhibition of CHK2 at 10 uM
[36] = target: Cyclin-dependent kinase 7/ cyclin H (Homo sapiens) (UniProt P51946+P50613); experiment: Inhibition of CDK7-CycH-MAT1 at 10 uM; assay type: protein-complex assay
[37] = target: Maternal embryonic leucine zipper kinase (Homo sapiens) (UniProt Q14680); experiment: Inhibition of MELK at 10 uM
[38] = target: Ribosomal protein S6 kinase beta-2 (Homo sapiens) (UniProt Q9UBS0); experiment: Inhibition of p70S6Kb at 10 uM

Mitogen-activated protein kinase 9 (Homo sapiens), sequence (P45984 whole entry, looked up): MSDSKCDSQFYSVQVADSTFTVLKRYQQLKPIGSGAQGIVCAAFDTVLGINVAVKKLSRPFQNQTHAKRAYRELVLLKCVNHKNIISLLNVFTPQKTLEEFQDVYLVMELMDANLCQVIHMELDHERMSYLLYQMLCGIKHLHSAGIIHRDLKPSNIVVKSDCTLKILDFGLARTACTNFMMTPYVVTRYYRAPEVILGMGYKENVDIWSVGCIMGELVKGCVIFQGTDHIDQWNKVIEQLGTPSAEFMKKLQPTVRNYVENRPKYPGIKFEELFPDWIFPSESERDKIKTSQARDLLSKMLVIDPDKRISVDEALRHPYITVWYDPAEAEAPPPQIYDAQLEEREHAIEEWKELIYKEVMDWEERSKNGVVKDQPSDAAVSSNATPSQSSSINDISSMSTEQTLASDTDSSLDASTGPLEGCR
Calcium/calmodulin-dependent protein kinase type IV (Homo sapiens), sequence (Q16566 whole entry): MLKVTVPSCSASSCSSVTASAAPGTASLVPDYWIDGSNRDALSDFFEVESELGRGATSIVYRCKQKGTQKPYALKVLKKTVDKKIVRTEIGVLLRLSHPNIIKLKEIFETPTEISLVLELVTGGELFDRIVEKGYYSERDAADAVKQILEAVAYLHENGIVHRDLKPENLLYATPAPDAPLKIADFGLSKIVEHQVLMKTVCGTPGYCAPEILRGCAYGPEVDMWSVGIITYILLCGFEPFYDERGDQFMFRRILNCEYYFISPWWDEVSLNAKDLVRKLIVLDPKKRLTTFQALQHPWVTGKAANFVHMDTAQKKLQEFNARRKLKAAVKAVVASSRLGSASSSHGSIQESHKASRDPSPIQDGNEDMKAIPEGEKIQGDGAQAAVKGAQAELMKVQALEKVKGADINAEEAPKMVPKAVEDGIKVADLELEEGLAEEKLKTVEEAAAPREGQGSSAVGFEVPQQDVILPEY
Mitogen-activated protein kinase 11 (Homo sapiens), sequence (Q15759 whole entry): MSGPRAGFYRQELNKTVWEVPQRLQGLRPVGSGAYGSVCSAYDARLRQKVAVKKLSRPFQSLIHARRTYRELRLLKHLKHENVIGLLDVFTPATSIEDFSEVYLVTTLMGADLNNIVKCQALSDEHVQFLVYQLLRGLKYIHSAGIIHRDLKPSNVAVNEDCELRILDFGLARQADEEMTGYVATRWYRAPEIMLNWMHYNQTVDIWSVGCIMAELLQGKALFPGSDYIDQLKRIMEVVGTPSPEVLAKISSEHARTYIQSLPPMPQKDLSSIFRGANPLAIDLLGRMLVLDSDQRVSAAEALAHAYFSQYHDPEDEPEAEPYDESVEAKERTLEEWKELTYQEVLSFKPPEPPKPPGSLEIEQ
Serine/threonine-protein kinase PLK3 (Homo sapiens), sequence (Q9H4B4 whole entry, looked up): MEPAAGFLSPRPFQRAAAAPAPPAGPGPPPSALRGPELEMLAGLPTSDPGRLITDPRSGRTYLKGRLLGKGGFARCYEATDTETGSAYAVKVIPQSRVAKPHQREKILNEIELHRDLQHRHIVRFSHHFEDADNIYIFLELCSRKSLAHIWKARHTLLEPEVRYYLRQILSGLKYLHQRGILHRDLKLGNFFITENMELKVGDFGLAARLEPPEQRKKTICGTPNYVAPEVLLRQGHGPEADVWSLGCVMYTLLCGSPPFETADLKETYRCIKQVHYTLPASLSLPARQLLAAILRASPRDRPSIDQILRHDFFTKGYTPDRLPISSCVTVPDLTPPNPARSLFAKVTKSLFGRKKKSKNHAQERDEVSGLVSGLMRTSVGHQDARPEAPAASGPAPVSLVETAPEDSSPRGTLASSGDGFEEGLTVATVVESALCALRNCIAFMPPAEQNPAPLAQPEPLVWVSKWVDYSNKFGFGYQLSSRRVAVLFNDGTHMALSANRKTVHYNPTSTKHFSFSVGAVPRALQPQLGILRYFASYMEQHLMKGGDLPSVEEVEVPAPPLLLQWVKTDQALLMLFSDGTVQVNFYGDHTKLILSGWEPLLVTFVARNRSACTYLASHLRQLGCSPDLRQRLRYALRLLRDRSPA
Calcium/calmodulin-dependent protein kinase type II subunit beta (Homo sapiens), sequence (Q13554 whole entry): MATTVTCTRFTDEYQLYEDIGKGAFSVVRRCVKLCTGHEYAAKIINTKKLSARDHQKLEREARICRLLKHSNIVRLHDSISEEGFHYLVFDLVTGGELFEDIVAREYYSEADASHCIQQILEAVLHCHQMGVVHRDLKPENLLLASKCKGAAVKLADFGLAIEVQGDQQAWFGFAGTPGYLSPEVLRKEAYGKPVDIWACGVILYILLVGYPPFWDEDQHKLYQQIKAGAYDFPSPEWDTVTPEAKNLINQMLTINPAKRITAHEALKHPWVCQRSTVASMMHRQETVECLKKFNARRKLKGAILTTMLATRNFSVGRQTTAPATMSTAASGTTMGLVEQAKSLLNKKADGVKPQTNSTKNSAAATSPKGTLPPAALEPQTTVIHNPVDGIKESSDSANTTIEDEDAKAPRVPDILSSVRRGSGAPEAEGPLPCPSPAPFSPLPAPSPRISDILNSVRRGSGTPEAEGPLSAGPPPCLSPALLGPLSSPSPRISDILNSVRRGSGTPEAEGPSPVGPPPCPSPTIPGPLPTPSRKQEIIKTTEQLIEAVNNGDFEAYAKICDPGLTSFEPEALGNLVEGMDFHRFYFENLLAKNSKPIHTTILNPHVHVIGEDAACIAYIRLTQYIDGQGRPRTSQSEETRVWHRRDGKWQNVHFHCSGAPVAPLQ
Receptor-type tyrosine-protein kinase FLT3 (Homo sapiens), sequence (P36888 whole entry): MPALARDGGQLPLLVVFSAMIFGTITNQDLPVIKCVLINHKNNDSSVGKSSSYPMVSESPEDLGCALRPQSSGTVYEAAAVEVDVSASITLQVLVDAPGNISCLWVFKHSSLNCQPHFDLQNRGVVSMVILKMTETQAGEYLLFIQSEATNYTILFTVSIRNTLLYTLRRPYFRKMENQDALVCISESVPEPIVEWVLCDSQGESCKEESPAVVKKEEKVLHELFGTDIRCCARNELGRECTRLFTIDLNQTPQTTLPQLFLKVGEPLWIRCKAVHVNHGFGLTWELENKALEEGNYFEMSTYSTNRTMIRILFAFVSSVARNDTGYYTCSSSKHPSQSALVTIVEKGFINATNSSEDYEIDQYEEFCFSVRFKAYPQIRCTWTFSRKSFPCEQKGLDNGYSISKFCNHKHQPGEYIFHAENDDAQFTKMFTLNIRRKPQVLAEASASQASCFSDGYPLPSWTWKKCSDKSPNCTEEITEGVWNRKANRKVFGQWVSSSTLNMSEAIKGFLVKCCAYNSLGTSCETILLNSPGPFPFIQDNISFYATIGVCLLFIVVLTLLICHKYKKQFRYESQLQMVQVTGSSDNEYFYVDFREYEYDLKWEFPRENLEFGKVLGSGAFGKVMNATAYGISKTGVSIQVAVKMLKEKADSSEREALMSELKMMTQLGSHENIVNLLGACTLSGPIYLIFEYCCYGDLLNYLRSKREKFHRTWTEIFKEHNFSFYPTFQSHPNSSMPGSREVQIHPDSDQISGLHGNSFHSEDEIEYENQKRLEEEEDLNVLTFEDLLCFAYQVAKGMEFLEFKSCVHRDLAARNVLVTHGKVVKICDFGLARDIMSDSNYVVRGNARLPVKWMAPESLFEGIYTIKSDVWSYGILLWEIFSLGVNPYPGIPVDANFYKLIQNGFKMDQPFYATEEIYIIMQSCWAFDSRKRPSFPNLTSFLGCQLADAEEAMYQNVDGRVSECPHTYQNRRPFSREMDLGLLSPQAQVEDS
Casein kinase II alpha'/ beta (Homo sapiens), sequence (P19784 whole entry partner): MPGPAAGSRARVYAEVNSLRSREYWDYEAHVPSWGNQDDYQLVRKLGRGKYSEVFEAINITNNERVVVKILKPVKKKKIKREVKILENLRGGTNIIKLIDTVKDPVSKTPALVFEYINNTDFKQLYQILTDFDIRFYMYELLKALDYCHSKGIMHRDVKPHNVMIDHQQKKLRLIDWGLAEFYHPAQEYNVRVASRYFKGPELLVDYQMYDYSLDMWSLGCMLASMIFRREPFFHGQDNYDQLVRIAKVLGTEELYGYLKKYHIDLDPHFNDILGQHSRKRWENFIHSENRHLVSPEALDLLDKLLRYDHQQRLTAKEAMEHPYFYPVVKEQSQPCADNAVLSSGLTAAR
Casein kinase II alpha'/ beta (Homo sapiens), sequence (P67870 2-215 limits assumed): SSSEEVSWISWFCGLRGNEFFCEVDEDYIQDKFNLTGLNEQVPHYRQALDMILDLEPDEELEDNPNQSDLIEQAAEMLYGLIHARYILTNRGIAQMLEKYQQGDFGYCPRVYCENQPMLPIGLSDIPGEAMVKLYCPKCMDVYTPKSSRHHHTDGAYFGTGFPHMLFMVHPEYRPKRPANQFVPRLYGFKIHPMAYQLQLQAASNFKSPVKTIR
Serine/threonine-protein kinase PAK 5 (Homo sapiens), sequence (Q9P286 whole entry, looked up): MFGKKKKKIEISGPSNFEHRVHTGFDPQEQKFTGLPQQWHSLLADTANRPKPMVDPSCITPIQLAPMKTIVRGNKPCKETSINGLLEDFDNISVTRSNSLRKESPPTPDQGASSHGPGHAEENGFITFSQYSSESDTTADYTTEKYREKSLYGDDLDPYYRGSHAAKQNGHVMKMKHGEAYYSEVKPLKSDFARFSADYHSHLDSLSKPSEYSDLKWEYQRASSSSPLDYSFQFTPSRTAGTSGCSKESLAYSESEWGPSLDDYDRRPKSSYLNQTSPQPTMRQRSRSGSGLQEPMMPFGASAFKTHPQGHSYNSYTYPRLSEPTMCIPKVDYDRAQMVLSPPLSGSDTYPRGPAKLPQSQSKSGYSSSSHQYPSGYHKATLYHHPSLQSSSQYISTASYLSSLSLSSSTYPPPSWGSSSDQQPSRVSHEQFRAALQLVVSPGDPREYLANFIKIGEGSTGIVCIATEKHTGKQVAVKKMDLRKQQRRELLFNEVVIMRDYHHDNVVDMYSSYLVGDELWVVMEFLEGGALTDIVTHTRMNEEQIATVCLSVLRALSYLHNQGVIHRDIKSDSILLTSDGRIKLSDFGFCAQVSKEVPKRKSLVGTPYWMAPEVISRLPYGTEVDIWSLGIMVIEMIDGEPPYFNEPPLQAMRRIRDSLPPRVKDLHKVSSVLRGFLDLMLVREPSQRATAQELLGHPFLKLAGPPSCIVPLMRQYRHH

COc1ccc2c3ccnc(C(F)(F)F)c3n(CCCCN)c2c1
inhibition [1]: 1%
inhibition [2]: 52%
inhibition [3]: 4%
inhibition [4]: 7%
inhibition [5]: 0%
inhibition [6]: 8%
inhibition [7]: 3%
inhibition [8]: 4%
inhibition [9]: 10%
inhibition [10]: 91%
inhibition [11]: 65%
inhibition [12]: 17%
inhibition [13]: 23%
inhibition [14]: 6%
inhibition [15]: 91%
inhibition [16]: 0%
inhibition [17]: 0%
inhibition [18]: 16%
inhibition [19]: 0%
inhibition [20]: 13%
inhibition [21]: 1%
IC50 [22]: 15 µM
inhibition [23]: 1%
inhibition [24]: 0%
inhibition [25]: 25%
inhibition [26]: 74%
inhibition [27]: 1%
inhibition [28]: 1%
inhibition [29]: 16%
inhibition [30]: 5%
inhibition [31]: 72%
inhibition [32]: 37%
inhibition [33]: 0%
inhibition [34]: 92%
inhibition [35]: 27%
inhibition [36]: 93%
inhibition [37]: 78%
inhibition [38]: 75%
